# Target: Folate binding protein (FBP, bovine milk) (Bos taurus, UniProt P02702)
# Experiment: SPR binding to immobilized folate binding protein
# Settings: read-out: equilibrium dissociation constant KD, FBP chip, free MTX
# Procedure: SPR analysis was performed in a Biacore® X instrument (Pharmacia Biosensor AB, Uppsala, Sweden).
# Folate binding protein (FBP)-presenting chip was prepared at the surface protein density of 11 ng/mm^2 (≈2-3 FBP per 10 nm^2) following an EDC-based amide coupling method as described previously (see, e.g., Hong, S.; et al., Chem. Biol. 2007, 14, 107-15; Plantinga, A.; et al., ACS Med. Chem. Lett. 2011, 2, 363-67; each herein incorporated by reference in their entireties).
# In an approach to determine the equilibrium dissociation constants (KD) for G5-MTXn on a quantitative basis, the SPR data was analyzed by using the non-linear regression method as established for SPR analysis (see, e.g., Ober, R. J.; et al., Anal. Biochem. 2003, 312, 57-65; herein incorporated by reference in its entirety). This analytical method enabled the SPR data to be fit according to a linear combination of exponential functions, and to extract the estimates for their kinetic rate constants (kon, koff) and KD (FIG. 7).
# Chain of Folate binding protein (FBP, bovine milk) (P02702 20-234): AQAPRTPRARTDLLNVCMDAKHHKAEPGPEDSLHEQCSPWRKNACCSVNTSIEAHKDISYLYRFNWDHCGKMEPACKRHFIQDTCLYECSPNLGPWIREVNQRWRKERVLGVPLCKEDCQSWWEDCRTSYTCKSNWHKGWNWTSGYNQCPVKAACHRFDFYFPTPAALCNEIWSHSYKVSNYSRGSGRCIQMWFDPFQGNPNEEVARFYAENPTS
smiles,measurement,value
"CN(Cc1cnc2nc(N)nc(N)c2n1)c1ccc(C(=O)N[C@@H](CCC(=O)O)C(=O)O)cc1 [MTX, methotrexate]",Kd,24 µM

# Source: patent US9402911B2, “Multifunctional small molecules” (The Regents of the University of Michigan, priority 2011, dated 2016)
